Measured values published in ChEMBL document CHEMBL1149765, “Anti-tumor 12-deoxyphorbol esters from Euphorbia cornigera” (Eur J Med Chem, 2008).
Values after ≈ are worked out from the molar mass of the structure shown.

Assays:
KB [1] = experiment: Cytotoxicity against human KB cells by MTT assay; type: functional, cell-based
KB [2] = experiment: Cytotoxicity against human KB cells assessed as viable cells at 1.0 ug/ml by trypan blue exclusion assay; type: functional; details: read-out: Activity
KB [3] = experiment: Cytotoxicity against human KB cells assessed as viable cells at 2.5 ug/ml by trypan blue exclusion assay; type: functional; details: read-out: Activity
KB [4] = experiment: Cytotoxicity against human KB cells assessed as viable cells at 5.0 ug/ml by trypan blue exclusion assay; type: functional; details: read-out: Activity
KB [5] = experiment: Cytotoxicity against human KB cells assessed as apoptotic cells at 1.0 ug/ml by trypan blue exclusion assay; type: functional
KB [6] = experiment: Cytotoxicity against human KB cells assessed as apoptotic cells at 2.5 ug/ml by trypan blue exclusion assay; type: functional
KB [7] = experiment: Cytotoxicity against human KB cells assessed as apoptotic cells at 5.0 ug/ml by trypan blue exclusion assay; type: functional
KB [8] = experiment: Cytotoxicity against human KB cells assessed as necrotic cells at 1.0 ug/ml by trypan blue exclusion assay; type: functional
KB [9] = experiment: Cytotoxicity against human KB cells assessed as necrotic cells at 2.5 ug/ml by trypan blue exclusion assay; type: functional
KB [10] = experiment: Cytotoxicity against human KB cells assessed as necrotic cells at 5.0 ug/ml by trypan blue exclusion assay; type: functional
KB [11] = experiment: Inhibition of DNA synthesis in human KB cells assessed as 5-bromo-2'-deoxyuridin incorporation at 2.5 ug/ml; type: functional
KB [12] = experiment: Inhibition of DNA synthesis in human KB cells assessed as 5-bromo-2'-deoxyuridin incorporation at 5.0 ug/ml; type: functional
KB [13] = experiment: Inhibition of DNA synthesis in human KB cells assessed as ratio of DNA in treated to control cells at 1.0 ug/ml; type: functional
KB [14] = experiment: Inhibition of DNA synthesis in human KB cells assessed as ratio of DNA in treated to control cells at 2.5 ug/ml; type: functional
KB [15] = experiment: Cytotoxicity against human KB cells assessed as viable cells at 0.3 ug/ml by trypan blue exclusion assay; type: functional; details: read-out: Activity
KB [16] = experiment: Cytotoxicity against human KB cells assessed as apoptotic cells at 0.3 ug/ml by trypan blue exclusion assay; type: functional
KB [17] = experiment: Cytotoxicity against human KB cells assessed as necrotic cells at 0.3 ug/ml by trypan blue exclusion assay; type: functional
KB [18] = experiment: Inhibition of DNA synthesis in human KB cells assessed as 5-bromo-2'-deoxyuridin incorporation at 0.3 ug/ml; type: functional
KB [19] = experiment: Inhibition of DNA synthesis in human KB cells assessed as ratio of DNA in treated to control cells at 0.3 ug/ml; type: functional

With `CCCCCCCCCC(=O)OCC1=C[C@H]2[C@@H]3C(C)(C)[C@]3(OC(C)=O)C[C@@H](C)[C@]2(O)[C@@H]2C=C(C)C(=O)[C@@]2(O)C1` the IC50 (KB [1]) was 8.5 µg/mL (≈ 15.6 µM).
Work on `COc1cccc2c1C(=O)c1c(O)c3c(c(O)c1C2=O)C[C@@](O)(C(=O)CO)C[C@@H]3O[C@H]1C[C@H](N)[C@H](O)[C@H](C)O1.Cl` [DOXORUBICIN HYDROCHLORIDE] yielded an IC50 (KB [1]) of 10 µg/mL.
With `CCCCCCCCCC(=O)OCC1=C[C@H]2[C@@H]3C(C)(C)[C@]3(OC(=O)CCCCCCCCC)C[C@@H](C)[C@]2(O)[C@@H]2C=C(C)C(=O)[C@@]2(O)C1` the IC50 (KB [1]) was 0.5 µg/mL (≈ 0.761 µM), the viability at 1 µg/mL (KB [2]) was 58.8% and the viability at 2.5 µg/mL (KB [3]) was 36.7%. It also gave a viability at 5 µg/mL (KB [4]) of 15.9%, an Activity (KB [5]) of 39.24% and an Activity (KB [6]) of 60.29%. For the same compound, the Activity (KB [7]) was 78.13%, the Activity (KB [8]) was 2% and the Activity (KB [9]) was 3%. It also gave an Activity (KB [10]) of 6%, an inhibition at 2.5 µg/mL (KB [11]) of 86% and an inhibition at 5 µg/mL (KB [12]) of 27.9%. It also gave a Ratio (KB [13]) of 0.57 and a Ratio (KB [14]) of 0.71.
Compound `CCCCCCCCCC(=O)OCC1=C[C@H]2[C@@H]3C(C)(C)[C@]3(OC(=O)CCCCCCC)C[C@@H](C)[C@]2(O)[C@@H]2C=C(C)C(=O)[C@@]2(O)C1` has an IC50 (KB [1]) of 0.8 µg/mL (≈ 1.27 µM), a viability at 1 µg/mL (KB [2]) of 74.7% and a viability at 2.5 µg/mL (KB [3]) of 65%. It also gave a viability at 5 µg/mL (KB [4]) of 26.1%, an Activity (KB [5]) of 25.23% and an Activity (KB [6]) of 34%. The Activity (KB [7]) was 70.89%, the Activity (KB [8]) was 0% and the Activity (KB [9]) was 1%. It also gave an Activity (KB [10]) of 3%, an inhibition at 2.5 µg/mL (KB [11]) of 85% and an inhibition at 5 µg/mL (KB [12]) of 23%. For the same compound, the Ratio (KB [13]) was 0.87 and the Ratio (KB [14]) was 0.71.
`COc1ccc(C(=O)OCC2=C[C@H]3[C@@H]4C(C)(C)[C@]4(OC(C)=O)C[C@@H](C)[C@]3(O)[C@@H]3C=C(C)C(=O)[C@@]3(O)C2)cc1` showed an IC50 (KB [1]) of 8.5 µg/mL (≈ 16.2 µM).
Work on `CCCCCCCCCCCC(=O)O[C@@]12C[C@@H](C)[C@@]3(O)[C@@H](C=C(COC(=O)CCCCCCCCC)C[C@]4(O)C(=O)C(C)=C[C@@H]34)[C@@H]1C2(C)C` yielded an IC50 (KB [1]) of 1 µg/mL (≈ 1.46 µM), a viability at 1 µg/mL (KB [2]) of 78.8% and a viability at 2.5 µg/mL (KB [3]) of 46.7%. It also gave a viability at 5 µg/mL (KB [4]) of 27.9%, an Activity (KB [5]) of 11.24% and an Activity (KB [6]) of 52.23%. The Activity (KB [7]) was 70.13%, the Activity (KB [8]) was 0% and the Activity (KB [9]) was 1%. For the same compound, the Activity (KB [10]) was 2%, the inhibition at 2.5 µg/mL (KB [11]) was 76% and the inhibition at 5 µg/mL (KB [12]) was 25.9%. The Ratio (KB [13]) was 0.47 and the Ratio (KB [14]) was 0.51.
For `CC(=O)O[C@@]12C[C@@H](C)[C@@]3(O)[C@@H](C=C(COC(=O)c4ccccc4)C[C@]4(O)C(=O)C(C)=C[C@@H]34)[C@@H]1C2(C)C`, the IC50 (KB [1]) was 8.2 µg/mL (≈ 16.6 µM).
Compound `CCCCCCCCCC(=O)OCC1=C[C@H]2[C@@H]3C(C)(C)[C@]3(OC(=O)CCCCC)C[C@@H](C)[C@]2(O)[C@@H]2C=C(C)C(=O)[C@@]2(O)C1` has an IC50 (KB [1]) of 7.2 µg/mL (≈ 12 µM).
In the case of `CC(=O)O[C@@]12C[C@@H](C)[C@@]3(O)[C@@H](C=C(CO)C[C@]4(O)C(=O)C(C)=C[C@@H]34)[C@@H]1C2(C)C` [PROSTRATIN], the IC50 (KB [1]) is reported as 1000 µg/mL (≈ 2560 µM).
Work on `C/C=C(/C)C(=O)OCC1=C[C@H]2[C@@H]3C(C)(C)[C@]3(OC(=O)CCCCCCCCC)C[C@@H](C)[C@]2(O)[C@@H]2C=C(C)C(=O)[C@@]2(O)C1` yielded an IC50 (KB [1]) of 6.4 µg/mL (≈ 10.9 µM).
`C/C=C(\C)C(=O)OCC1=C[C@H]2[C@@H]3C(C)(C)[C@]3(OC(=O)CCCCCCCCC)C[C@@H](C)[C@]2(O)[C@@H]2C=C(C)C(=O)[C@@]2(O)C1` was tested, and the IC50 (KB [1]) was 7.6 µg/mL (≈ 13 µM).
For `COc1cccc2c1C(=O)c1c(O)c3c(c(O)c1C2=O)C[C@@](O)(C(=O)CO)C[C@@H]3O[C@H]1C[C@H](N)[C@H](O)[C@H](C)O1` [DOXORUBICIN], the viability at 0.3 µg/mL (KB [15]) was 37.7%, the Activity (KB [16]) was 61.33% and the Activity (KB [17]) was 1%. It also gave an inhibition at 0.3 µg/mL (KB [18]) of 37.7% and a Ratio (KB [19]) of 0.57.
Compound `CCCCCCCCCC(=O)OCC1=C[C@H]2[C@@H]3C(C)(C)[C@]3(OC(=O)CCC)C[C@@H](C)[C@]2(O)[C@@H]2C=C(C)C(=O)[C@@]2(O)C1` has an IC50 (KB [1]) of 7.8 µg/mL (≈ 13.6 µM).
